The results in this text go back to patent US10538497B2, “Compounds as indoleamine 2,3-dioxygenase inhibitors” (Merck Sharp & Dohme Corp., priority 2015, dated 2020).

Assay [1] has as its target T1, IDO1 (Homo sapiens (Human), UniProt P14902). As to the kind of experiment: IDO1 Cellular Assay in Frozen HEK293 Cells Transiently Transfected with Human IDO1. The class given is cell-based. Particulars: HEK293 cells transiently transfected with human IDO1; read-out: IDO1 HEK293 Cell Assay, IC50.
Assay [2] concerns the target T1, IDO1. As to the kind of experiment: IDO1 Cellular Assay in Hela Cells Stimulated with IFNγ. The class given is cell-based. The settings on record: Hela cells stimulated with IFNγ 100 ng/mL; read-out: IDO1 HELA Cell Assay, IC50.
Assay [3] addresses T1, IDO1. As to the kind of experiment: IDO1 Human Whole Blood Assay. The class given is cell-based. The settings on record: LPS and IFNγ 100 ng/mL, kynurenine by LC/MS/MS. The procedure: IDO1 Human Whole Blood Assay
LPS and IFNγ was prepared in RPMI to a 10× of final conc. (1000 ng/mL), final concentration is 100 ng/mL.
Human whole blood was drawn in sodium heparin coated tubes from healthy internal donors. Two hundred fourty μL of blood was transferred to each of the wells of a v-bottom 96 well plate. Thirty μL of compound was transferred from intermediate dilution plate, and incubated for 15 min. […] from stimulants was then transferred to blood and mixed thoroughly. Plate was covered with breathable membrane and incubated at 37° C. for overnight (18 h).
On day 2 isotope labeled standard of kunurenine and tryptophan was made in water at 10× concentration and 30 μL was added to the blood at 3 μM final concentration. The assay plates were centrifuged at 300×G for 10 min with no brake to separate plasma from red blood cells. Sixty μL of plasma samples was removed without disturbing red blood cells. Plasma was diluted with RPMI in 1:1 ratio and proteins were precipitated out with two volume of Acetonitrile. The plates was centrifuged at 4000×G for 60 min. Twenty μL of supernatant was carefully transferred to a 384 well plate contain 40 μL of 0.1% formic acid in water and analysed by LC/MS/MS.
LC/MS/MS analyses were performed using Thermo Fisher's LX4-TSQ Quantum Ultra system. This system consists of four Agilent binary high-performance liquid chromatography (HPLC) pumps and a TSQ Quantum Ultra triple quadrupole MS/MS instrument. For each sample, 5 μL were injected onto an Atlantis T3 column column (2.1 mm×150 mm, 3 μm particle size) from Waters. The mobile phase gradient pumped at 0.8 mL/min was used to elute the analytes from the column at 25° C. The elution started at 0% B increasing linearly to 25% B at 6.5 min, holding at 25% for 1 min, re-equilibrating to 10 min. Mobile phase A consisted of 0.1% formic acid in water. Mobile phase B consisted of 0.1% of formic acid in acetonitrile. Data was acquired in positive mode using a HESI interface. The operational parameters for the TSQ Quantum Ultra instrument were a spray voltage of 4000 V, capillary temperature of 380° C., vaporizer temperature 400° C., shealth gas 60 arbitrary units, Aux gas 20 arbitrary units, tube lens 85 and collision gas 1.2 mTorr. SRM chromatograms of kynurenine (Q1: 209.2>Q3:94.0) and internal standard (Q1: 215.3>Q3:98.2) were collected for 90 sec. The peak area was integrated by Xcalibur Quan software. The ratios between the kynurenine generated in the reaction and 2D6-Kynurenine spiked-in internal standard were used to generate percentage inhibition and IC50 values. Compounds were titrated and IC50's were calculated by 4 parameter sigmoidal curve fitting formula.

The target of assay [4] is T1, IDO1. As to the kind of experiment: IDO1 Enzyme Assay. The settings on record: read-out: IDO1 Enzyme Assay, IC50; HIS-tagged recombinant IDO1, 40 nM.

T1 sequence (P14902 whole entry): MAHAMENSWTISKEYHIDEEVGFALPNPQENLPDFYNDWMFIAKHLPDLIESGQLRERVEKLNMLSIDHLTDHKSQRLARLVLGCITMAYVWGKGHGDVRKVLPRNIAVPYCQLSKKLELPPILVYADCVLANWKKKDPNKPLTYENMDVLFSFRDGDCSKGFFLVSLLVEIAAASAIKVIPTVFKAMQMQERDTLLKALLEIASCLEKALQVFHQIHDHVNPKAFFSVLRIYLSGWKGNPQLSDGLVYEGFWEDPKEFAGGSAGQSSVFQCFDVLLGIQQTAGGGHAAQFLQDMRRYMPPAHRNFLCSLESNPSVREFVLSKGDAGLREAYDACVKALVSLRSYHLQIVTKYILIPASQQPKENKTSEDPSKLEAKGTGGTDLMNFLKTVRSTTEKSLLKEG

With `N#Cc1cc(N/C(=N\O)c2nonc2SC[C@@H]2CCC(=O)N2)ccc1F` [Example 149, N-(3-cyano-4-fluorophenyl)-N′-hydroxy-4-({[(2S)-5-oxopyrrolidin-2-yl]methyl}sulfanyl)-1,2,5-oxadiazole-3-carboximidamide], the IC50 (usually the point on the concentration scale where inhibition reaches its midpoint) in assay [1] came to 0.12 µM; in assay [2], 0.285 µM; in assay [3], 1.05 µM; in assay [4], 0.11 µM.

Regarding `OC[C@@H](O)CSc1nonc1/C(=N/O)Nc1ccc(F)c(C(F)F)c1` [Example 168, N-[3-(difluoromethyl)-4-fluorophenyl]-4-{[(2R)-2,3-dihydroxypropyl]sulfanyl}-N′-hydroxy-1,2,5-oxadiazole-3-carboximidamide], the IC50 in assay [1] turned out to be 0.0551 µM; in assay [2] it was 0.111 µM; in assay [3], 0.475 µM; in assay [4], 0.0691 µM.

In the case of `OC[C@@H](O)CSc1nonc1/C(=N/O)Nc1ccc(F)c(Cl)c1` [Example 169, N-(3-chloro-4-fluorophenyl)-4-{[(2R)-2,3-dihydroxypropyl]sulfanyl}-N′-hydroxy-1,2,5-oxadiazole-3-carboximidamide], the IC50 in assay [1] was found to be 0.0937 µM; in assay [2] it was 0.191 µM; in assay [3], 1.29 µM; in assay [4], 0.0528 µM.

In the case of `CS(=O)(=O)NCCSc1nonc1/C(=N/O)Nc1ccc(F)c(C#N)c1` [Example 171, N-(3-cyano-4-fluorophenyl)-N′-hydroxy-4-({2-[(methylsulfonyl)amino]ethyl}sulfanyl)-1,2,5-oxadiazole-3-carboximidamide], the IC50 in assay [1] turned out to be 0.0308 µM; in assay [2] it was 0.12 µM; in assay [3], 0.66 µM; in assay [4], 0.11 µM.

As to `CC(=O)N[C@H](CO)CSc1nonc1/C(=N/O)Nc1ccc(F)c(Br)c1` [Example 173, N-[(1R)-2-({4-[N-(3-bromo-4-fluorophenyl)-N′-hydroxycarbamimidoyl]-1,2,5-oxadiazol-3-yl}sulfanyl)-1-(hydroxymethyl)ethyl]acetamide], the IC50 in assay [1] was found to be 0.155 µM; in assay [2], 0.246 µM; in assay [3], 0.827 µM; in assay [4], 0.0937 µM.

`O=C(CSc1nonc1/C(=N/O)Nc1ccc(F)c(Br)c1)NC[C@H](O)CO` [Example 175, 2-({4-[N-(3-bromo-4-fluorophenyl)-N′-hydroxycarbamimidoyl]-1,2,5-oxadiaxol-3-yl}sulfanyl)-N-[(2S)-2,3-dihydroxypropyl]acetamide]: the IC50 in assay [1] is 0.281 µM; in assay [2], 0.223 µM; in assay [3] it was 1.72 µM; in assay [4] it was 0.125 µM.

As to `N#Cc1cc(N/C(=N\O)c2nonc2SCCNS(=O)(=O)C2CC2)ccc1F` [Example 178, N-(3-cyano-4-fluorophenyl)-4-({2-[(cyclopropylsulfonyl)amino]ethyl}sulfanyl)-N′-hydroxy-1,2,5-oxadiazole-3-carboximidamide], the IC50 is 0.0355 µM in assay [1], 0.0572 µM in assay [2], 1.08 µM in assay [3] and 0.0608 µM in assay [4].

As to `N#Cc1cc(N/C(=N\O)c2nonc2SCCNS(N)(=O)=O)ccc1F` [Example 181, N-(3-cyano-4-fluorophenyl)-N′-hydroxy-4-{[2-(sulfamoylamino)ethyl]sulfanyl}-1,2,5-oxadiazole-3-carboximidamide], the IC50 in assay [1] turned out to be 0.136 µM; in assay [2], 0.261 µM; in assay [3], 3.24 µM; in assay [4], 0.119 µM.

For `N#Cc1cc(N/C(=N\O)c2nonc2SCCNC(=O)CO)ccc1F` [Example 182, N-[2-({4-[N-(3-cyano-4-fluorophenyl)-N′-hydroxycarbamimidoyl]-1,2,5-oxadiazol-3-yl}sulfanyl)ethyl]-2-hydroxyacetamide], the IC50 came out at 0.186 µM in assay [1], 0.321 µM in assay [2], 0.526 µM in assay [3] and 0.135 µM in assay [4].

For `CNC(=O)CSc1nonc1/C(=N/O)Nc1ccc(F)c(C#N)c1` [Example 185, 2-({4-[N-(3-cyano-4-fluorophenyl)-N′-hydroxycarbamimidoyl]-1,2,5-oxadiazol-3-yl}sulfanyl)-N-methylacetamide], the half-inhibitory concentration (IC50) in assay [1] worked out at 0.0654 µM; in assay [2] it was 0.166 µM; in assay [3], 0.395 µM; in assay [4], 0.088 µM.

`O/N=C(\Nc1ccc(F)c(Br)c1)c1nonc1SCc1nnc[nH]1` [Example 191, N-(3-bromo-4-fluorophenyl)-N′-hydroxy-4-[(4H-1,2,4-triazol-3-ylmethyl)sulfanyl]-1,2,5-oxadiazole-3-carboximidamide]: the IC50 was determined as 0.01 µM in assay [1], 0.0226 µM in assay [2], 0.903 µM in assay [3] and 0.0437 µM in assay [4].
